US10065957B2, “Beta-lactamase inhibitors” (Novartis AG, priority 2016, dated 2018)
Where a name gives a salt, the structure may show the parent alone. Read-outs that look alike come from different tables or passages of the source.

What was measured:
Format in all cases: cell-based
[1] = test system: K. pneumoniae NB29323 (CTX-M-15, OXA-48, VEB-1); settings: aztreonam alone
Method: (§1) MICs were determined by the broth microdilution method in accordance with Clinical and Laboratories Institute (CLSI) guidelines. In brief, fresh overnight bacterial cultures were suspended in sterile saline, and adjusted to a 0.5 McFarland turbidity standard. Bacterial suspensions were then diluted in cation adjusted Mueller-Hinton Broth (MHB II; BBL) to yield a final inoculum of approximately 5×10^5 colony-forming units (CFU)/mL. A master plate of antibiotics was prepared at a concentration equivalent to hundred-fold the highest desired final concentration in 100% dimethyl sulfoxide (DMSO). The master antibiotic plate was then diluted by serial twofold dilution with a multichannel pipette. The resulting dilution series of compounds were diluted 1:10 with sterile water or a solution of beta-lactamase inhibitor prepared at a concentration equivalent to eleven-fold the desired final concentration in deionized water leading to a 10% DMSO final concentration. A volume of 10 μL of the drug dilution series was transferred to 96-well assay plates. Assay plates were inoculated with 90 μL of bacterial suspensions and incubated at 35° C. for 20 hrs. The assay plates were read using a microtiter plate reader (Molecular Devices) at 600 nm as well as by visual observation with a reading mirror. The lowest concentration of the compound that prevented visible growth was recorded as the MIC. Performance of the assay was monitored by testing aztreonam against laboratory quality control strains in accordance with guidelines of the CLSI.
(§2) Synergy or potentiation of beta-lactam antibiotics through inhibition of Q-lactamases was assessed against an isogenic panel of E. coli strains, each expressing a unique beta-lactamase, and against clinical strains.

E. coli (AmpC) = experiment: microbe, parasite or virus in culture; settings: for MIC: Escherichia coli
Method: as §1, §2
The gene encoding AmpC was PCR amplified from the genome of strain P. aeruginosa PAO1 (NB52019) (GenBank ID U5R279) using primer pair E252 (gccCTCGAGggcgaggccccggcggatcgc) (SEQ ID NO: 17) and E253 (tgaGAATTCtcagcgcttcagcggcacct) (SEQ ID NO: 18).
The PCR products were then digested with XhoI and EcoRI and ligated into similarly digested plasmid pAH63-pstS(BlaP). Plasmid pAH63-pstS(BlaP) is a derivative of plasmid pAH63 (J Bacteriol: 183(21): 6384-6393) made by cloning the TEM-1 (bla) promoter and signal peptide encoding region from plasmid pBAD (J Bacteriol. 1995 July 177(14):4121-30) into plasmid pAH63. This fragment was PCR amplified from pBAD using primer pair E192 (ttcaCTGCAGtgaacgttgcgaagcaacggC) (SEQ ID NO:19) and E194 (TCGAggatcctcgagagcaaaaacaggaaggcaaaatgccg) (SEQ ID NO:20), digested with PstI and BamHI and inserted into similarly digested plasmid pAH63. Therefore, expression of beta-lactamases from pAH63-pstS(BlaP) based constructs is constitutive and the signal sequence is provided to direct these proteins to the periplasm. Plasmid pAH63 based vectors are used for insertion into the genome in single copy, however, to provide higher expression levels to allow more sensitive detection of the susceptibility of compounds to the expressed beta-lactamases, the expression inserts contained in these vectors were moved to the replicative multicopy vector pBAD-Kan (J Bacteriol. 1995 July 177(14):4121-30). To accomplish this, the inserts encompassing the beta-lactamase genes, with the associated TEM promoter and signal sequences, were PCR amplified from their corresponding vectors using primer E268 (ccgTCTAGAcggatggcctttttgcgtttc) (SEQ ID NO:21) and E202 (aatcGAATTCttactgaccattaacgcccaagc) (SEQ ID NO:22) for the KPC2 construct, E204 (aatcGAATTCttaacgctgccagtgctcaatc) (SEQ ID NO:23) for the SHV-12 construct and E203 (aatcGAATTCttacagaccgtcggtgacaatc) (SEQ ID NO:24) for the CTX-M-15 construct. These fragments were then digested with XbaI and EcoRI, and each was inserted into pBAD18-kan that had been digested with the same enzymes to generate multicopy vectors expressing KPC-2, SHV-12 and CTX-M-15, respectively. […]

E. coli (SHV-12) = experiment: microbe, parasite or virus in culture
Method: as §1, with “MIC.” for “MIC. Performance of the assay was monitored by testing aztreonam against laboratory quality control strains in accordance with guidelines of the CLSI.”
as §2
(§3) Strain NB27273 (BW25113 pspB::Km^r) was obtained from the Keio transposon insertion collection. The strain has the pspB gene replaced by a kanamycin resistance marker (BW25113 pspB::Km^r). This strain was cured of the transposon in pspB via FLP recombinase using published methodology. The resulting strain, BW25113 pspB, was used as a host for multicopy vectors expressing key beta-lactamases. Multicopy plasmids directing constitutive expression of beta-lactamases were established as follows: Synthetic, codon optimized genes encoding E. coli KPC-2, SHV-12 and CTX-M-15 beta-lactamases were made by DNA2.0 (Palo Alto, Calif.). Each of the synthetic fragments were designed to contain NotI and NcoI restriction sites at their termini, allowing ligation into a NotI/NcoI digested pET28a(+) derivative for protein expression. […] The codon optimized nucleotide sequences and relevant primer recognition information is shown below:
(§4) The PCR products were then digested with XhoI and EcoRI and ligated into similarly digested plasmid pAH63-pstS(BlaP). […] Therefore, expression of beta-lactamases from pAH63-pstS(BlaP) based constructs is constitutive and the signal sequence is provided to direct these proteins to the periplasm. […] These fragments were then digested with XbaI and EcoRI, and each was inserted into pBAD18-kan that had been digested with the same enzymes to generate multicopy vectors expressing KPC-2, SHV-12 and CTX-M-15, respectively. These vectors were transformed into BW25113 pspB to generate strains NB27273-CDY0033 (expressing KPC-2), NB27273-CDY0030 (expressing SHV-12), NB27273-CDY0034 (expressing CTX-M-15) and NB27273-CDY0036 (expressing AmpC). The pBAD18-kan vector also contains the TEM promoter region and signal sequence, (but lacks any intact beta-lactamase genes) and was transformed into BW25113 pspB using standard protocols to generate the control strain NB27273-CDY0026.

E. coli (CTX-M-15) = experiment: microbe, parasite or virus in culture
Method: as §1, with “MIC.” for “MIC. Performance of the assay was monitored by testing aztreonam against laboratory quality control strains in accordance with guidelines of the CLSI.”
as §2, §3, §4

E. coli (KPC-2) = experiment: microbe, parasite or virus in culture; settings: E. coli (KPC-2)
Method: as §1, with “MIC.” for “MIC. Performance of the assay was monitored by testing aztreonam against laboratory quality control strains in accordance with guidelines of the CLSI.”
as §2, §3, §4

E. coli (TEM-10) = experiment: microbe, parasite or virus in culture
Method: as §1, with “MIC.” for “MIC. Performance of the assay was monitored by testing aztreonam against laboratory quality control strains in accordance with guidelines of the CLSI.”
as §2
(§5) Construction of E. coli isogenic strains, NB27273-CDY0105 (OXA-18) and NB27273-CDY0048 (TEM-10). […] The gene encoding OXA-18 was then digested with XhoI and EcoRI and inserted into this vector, from which the gene for GIM-1 had been removed with XhoI and EcoRI.
From this template DNA, three fragments were generated by PCR using the following primer pairs;
This fragment was then digested with XbaI and EcoRI and inserted into pBAD-kan which was also cut with the same enzymes.
(§6) These final vectors for expression of OXA-18 and TEM-10 were transformed into BW25113 pspB to generate strains NB27273-CDY0105 (expressing OXA-18) and NB27273-CDY0048 (expressing TEM-10).

E. coli (OXA-18) = experiment: microbe, parasite or virus in culture; settings: for MIC of piperacillin with beta-lactamase inhibitor: Pip + BLI at 2 μg/mL
Method: as §1, with “MIC.” for “MIC. Performance of the assay was monitored by testing aztreonam against laboratory quality control strains in accordance with guidelines of the CLSI.”
as §2, §5, §6

E. coli ATCC 25922 = experiment: MIC by broth microdilution, BLI alone; settings: Escherichia coli, ATCC25922, read-out: Minimal Inhibitory Concentrations (MIC) of selected BLIs
Method: as §1

P. aeruginosa ATCC 27853 = experiment: MIC by broth microdilution, BLI alone; settings: Pseudomonas aeruginosa, ATCC27853, read-out: Minimal Inhibitory Concentrations (MIC) of selected BLIs
Method: as §1

K. pneumoniae ATCC 43816 = experiment: MIC by broth microdilution, BLI alone; settings: Klebsiella pneumoniae, ATCC43816, read-out: Minimal Inhibitory Concentrations (MIC) of selected BLIs
Method: as §1

[2] = Escherichia coli, Mero alone, read-out: MIC of meropenem

Compound: C[C@H]1[C@H](NC(=O)/C(=N\OC(C)(C)C(=O)O)c2csc(N)n2)C(=O)N1S(=O)(=O)O [Aztreonam]
- Activity of aztreonam [1]: >64 µg/mL
- MIC (E. coli (AmpC); read-out: MIC of aztreonam, AZ alone): 4 µg/mL

Compound: Nc1nc(/C(=N/OC2(C(=O)O)CC2)C(=O)N[C@@H]2C(=O)N(S(=O)(=O)O)[C@@H]2CN2CCOC2=O)cs1 [Beta-Lactam 5]
- Activity of Beta-Lactam 5 (E. coli (SHV-12); Beta-Lactam 5 alone): 0.5 µg/mL
- Activity of Beta-Lactam 5 (E. coli (CTX-M-15); Beta-Lactam 5 alone): 0.125 µg/mL
- Activity of Beta-Lactam 5 (E. coli (KPC-2); Beta-Lactam 5 alone): 0.25 µg/mL
- Activity of Beta-Lactam 5 (E. coli (TEM-10); Beta-Lactam 5 alone): 2 µg/mL
- Activity of Beta-Lactam 5 (E. coli (AmpC); Beta-Lactam 5 alone): 0.25 µg/mL
- Activity of Beta-Lactam 5 (E. coli (OXA-18); Beta-Lactam 5 alone): 0.5 µg/mL

Compound: CN1C[C@@H]2C[C@@H]3CN(C(=O)N3OS(=O)(=O)[O-])[C@@H]2C1=O.[Na+] [Example 2, Sodium (4R,5aS,8aS)-7-methyl-2,8-dioxohexahydro-2H-1,4-methanopyrrolo[3,4-d][1,3]diazepin-3(4H)-yl sulfate]
- MIC (E. coli ATCC 25922): > 64 µg/mL
- MIC (P. aeruginosa ATCC 27853): > 64 µg/mL
- MIC (K. pneumoniae ATCC 43816): > 64 µg/mL
- MIC of piperacillin with beta-lactamase inhibitor (E. coli (OXA-18)): 4 µg/mL

Compound: O=C1[C@@H]2[C@@H](C[C@@H]3CN2C(=O)N3OS(=O)(=O)[O-])CN1C1CC1.[Na+] [Example 3, Sodium (4R,5aS,8aS)-7-cyclopropyl-2,8-dioxohexahydro-2H-1,4-methanopyrrolo[3,4-d][1,3]diazepin-3(4H)-yl sulfate]
- MIC (E. coli ATCC 25922): > 64 µg/mL
- MIC (P. aeruginosa ATCC 27853): > 64 µg/mL
- MIC (K. pneumoniae ATCC 43816): > 64 µg/mL
- MIC of piperacillin with beta-lactamase inhibitor (E. coli (OXA-18)): 4 µg/mL

Compound: O=C1[C@@H]2[C@@H](C[C@@H]3CN2C(=O)N3OS(=O)(=O)[O-])CN1CCO.[Na+] [Example 4, Sodium (4R,5aS,8aS)-7-(2-hydroxyethyl)-2,8-dioxohexahydro-2H-1,4-methanopyrrolo[3,4-d][1,3]diazepin-3(4H)-yl sulfate]
- MIC (E. coli ATCC 25922): > 64 µg/mL
- MIC (P. aeruginosa ATCC 27853): > 64 µg/mL
- MIC (K. pneumoniae ATCC 43816): > 64 µg/mL

Compound: NCCN1C[C@@H]2C[C@@H]3CN(C(=O)N3OS(=O)(=O)O)[C@@H]2C1=O [Example 5, (4R,5aS,8aS)-7-(2-aminoethyl)-2,8-dioxohexahydro-2H-1,4-methanopyrrolo[3,4-d][1,3]diazepin-3(4H)-yl hydrogen sulfate]
- MIC (E. coli ATCC 25922): > 64 µg/mL
- MIC (P. aeruginosa ATCC 27853): > 64 µg/mL
- MIC (K. pneumoniae ATCC 43816): > 64 µg/mL

Compound: CCCN1C[C@@H]2C[C@@H]3CN(C(=O)N3OS(=O)(=O)[O-])[C@@H]2C1=O.[Na+] [Example 6, Sodium (4R,5aS,8aS)-2,8-dioxo-7-propylhexahydro-2H-1,4-methanopyrrolo[3,4-d][1,3]diazepin-3(4H)-yl sulfate]
- MIC (E. coli ATCC 25922): > 64 µg/mL
- MIC (P. aeruginosa ATCC 27853): > 64 µg/mL
- MIC (K. pneumoniae ATCC 43816): > 64 µg/mL

Compound: O=C1NCC[C@@H]2C[C@@H]3CN(C(=O)N3OS(=O)(=O)[O-])[C@H]12.[Na+] [Example 7, Sodium (4R,5aR,9aS)-2,9-dioxooctahydro-1,4-methanopyrido[3,4-d][1,3]diazepin-3(2H)-yl hydrogen sulfate]
- MIC (E. coli ATCC 25922): > 64 µg/mL
- MIC (P. aeruginosa ATCC 27853): > 64 µg/mL
- MIC (K. pneumoniae ATCC 43816): > 64 µg/mL
- MIC of piperacillin with beta-lactamase inhibitor (E. coli (OXA-18)): 8 µg/mL

Compound: COC[C@@H]1NC(=O)[C@@H]2[C@H]1C[C@@H]1CN2C(=O)N1OS(=O)(=O)[O-].[Na+] [Example 8, Sodium (4R,5aS,6R,8aS)-6-(methoxymethyl)-2,8-dioxohexahydro-2H-1,4-methanopyrrolo[3,4-d][1,3]diazepin-3(4H)-yl hydrogen sulfate]
- MIC (E. coli ATCC 25922): > 64 µg/mL
- MIC (P. aeruginosa ATCC 27853): > 64 µg/mL
- MIC (K. pneumoniae ATCC 43816): > 64 µg/mL

Compound: C[C@@H](O)[C@H]1C(=O)N2C(C(=O)O)=C(S[C@@H]3CN[C@H](C(=O)N(C)C)C3)[C@H](C)[C@H]12 [Meropenem]
- MIC (E. coli (SHV-12); [2]): ≤ 0.06 µg/mL
- MIC (E. coli (CTX-M-15); [2]): ≤ 0.06 µg/mL
- MIC (E. coli (KPC-2); [2]): 1 µg/mL
- MIC (E. coli (TEM-10); [2]): ≤ 0.06 µg/mL
- MIC (E. coli (AmpC); Mero alone, read-out: MIC of meropenem): ≤ 0.06 µg/mL
- MIC (E. coli (OXA-18); [2]): ≤ 0.06 µg/mL

Compound: Ceftazidime
- MIC of ceftazidime (E. coli (SHV-12); ceftazidime alone): >64 µg/mL
- MIC of ceftazidime (E. coli (CTX-M-15); ceftazidime alone): 16 µg/mL
- MIC of ceftazidime (E. coli (TEM-10); ceftazidime alone): >64 µg/mL
- MIC of ceftazidime (E. coli (AmpC); ceftazidime alone): 4 µg/mL
- MIC of ceftazidime (E. coli (OXA-18); ceftazidime alone): >64 µg/mL
